According to patent US20240002470A1, “Method for separation and/or detection and/or in vitro quantification of infectious compounds in biological material” (priority 2020, published 2024):

How the values were obtained:
[1] = tested on: ISAV virus (Infectious salmon anemia virus); assay: Capture of ISAV virus on magnetic microbeads coated with pepβ2GPI, RT-PCR quantification; format: binding; conditions: for % compared to β2GPI: ISAV copies captured relative to β2GPI beads; for ISAV copies: virus captured on coated beads from culture supernatant
Excerpt: The virus used is the ISAV virus (Infectious salmon anemia virus), responsible for anemia in salmon, originating from a culture supernatant.
The microbeads, intended to fix the virus, which are used are magnetic microbeads sold by the company MERCK under the name “Estapor® super-paramagnetic microspheres” which have a diameter between […].
(§1) The pepβ2GPI were grafted onto the microbeads according to the supplier's recommendations. In summary, the microbeads are suspended in phosphate buffer at a pH of 6.0. The beads are then activated, for 15 minutes, in the presence of 1-ethyl-3-(3-Dimethylaminopropyl) carbodiimide and N-hydroxysuccinimide. After washing with HCl, 2 mM, the beads are suspended in a phosphate buffer at a pH of 7.5, containing the pepβ2GPI. The concentration of pepβ2GPI in this coupling buffer is 20 mg/L; the microbeads are incubated in the buffer with gentle and constant shaking at a temperature of 25° C. for 3 hours. The microbeads are then centrifuged at 1,500 rpm and the supernatant is removed; the centrifugation pellet is suspended in the same buffer as that used for the coupling of pepβ2GPI, which forms the suspension of microbeads coated with pepβ2GPI which we want to test.
(§2) One hundred microliters of viral culture supernatant to be studied are placed in an Eppendorf tube with 900 microliters of Tris buffer at a pH of 7.5 and 10 microliters of microbeads. The tubes are shaken horizontally to mix the microbeads well, and each tube is incubated at 37° C. or at room temperature (RT=22° C.) for 30 minutes. In each tube, the microbeads are then separated from the liquid phase by means of a magnet, placed externally against the wall of the tube, and the viral RNA is extracted. The beads are brought into contact with a viral lysis buffer, included in an RNA extraction kit: QIAamp RNA viral kit, sold by QIAGEN and the viral RNA is isolated according to the seller's recommendations.
The RNA is then transcribed into complementary DNA, in the presence of reverse transcriptase, according to the following protocol:
Finally, the complementary DNA (cDNA) is amplified by chain reaction using a polymerase and quantified according to the following protocol: […]

[2] = tested on: BVDV virus (Bovine viral Diarrhea Virus); assay: Capture of BVDV virus on magnetic microbeads coated with pepβ2GPI; format: binding
Protocol: as §1, §2
(§3) The viruses tested are the HSV virus (Herpes Simplex virus) and the BVDV virus (Bovine viral Diarrhea Virus).
(§4) The same protocol as that described in example 1 was carried out.

[3] = tested on: E. coli ATCC 11105; assay: Capture on magnetic microbeads coated with pepβ2GPI: C3 E. coli ATCC 11105; format: binding
Protocol: (§5) To test the interaction of microbeads coated with β2GPI and the peptides derived from them, with bacteria present in the blood, 1 ml of blood culture is taken from each sample and placed in a 15 ml tube. 20 μl of microbeads are added and each tube is incubated at 37° C. with horizontal shaking. The tubes are then placed in a magnetic field which retains the microbeads on the wall and the supernatant is removed. The microbeads are then washed twice with sterile PBS, of the same composition as previously indicated; the microbeads are then resuspended in 150 μl of BTS culture medium. Two methods for detecting bacteria captured by microbeads were used: culture on TS agar and PCR For the detection of the bacterial capture by culture, 50 μl of the suspension of microbeads thus obtained are taken and they are spread out in a Petri dish containing TS agar. Petri dishes are incubated in an oven at 37° C. for 24 hours. The bacteria that have grown on the agar were then counted.
(§6) The tested bacteria are: C3 E. coli ATCC 11105, C5 S. aureus ATCC 6538, H61 E. coli B6054, C1: E. coli ATCC 8739, H46: C. albicans 1 and H: 60 SCN
(§7) The same protocol and primers as those described in example 9 were carried out.

[4] = tested on: S. aureus ATCC 6538; assay: Capture on magnetic microbeads coated with pepβ2GPI: C5 S. aureus ATCC 6538; format: binding
Protocol: as §5, §6, §7

[5] = tested on: E. coli B6054; assay: Capture on magnetic microbeads coated with pepβ2GPI: H61 E. coli B6054; format: binding
Protocol: as §5, §6, §7

[6] = tested on: E. coli; conditions: cited from earlier work
[7] = tested on: S. pyogenes; conditions: cited from earlier work
[8] = tested on: S. aureus; conditions: cited from earlier work
[9] = tested on: IPN virus (Infectious pancreatic necrosis virus); assay: Capture of IPN virus on magnetic microbeads coated with pepβ2GPI, RT-PCR quantification; format: binding; conditions: for % compared to β2GPI: IPN copies captured relative to β2GPI beads; for IPN Copies: virus captured on coated beads from culture supernatant
Protocol: as §1, §2
The virus used is the IPN virus (Infectious pancreatic necrosis virus), responsible for necrosis of the pancreas in salmon, originating from a culture supernatant. The same protocol as described in example 1 was carried out.

[10] = tested on: HCV virus (hepatitis C virus); assay: Capture of HCV virus from patient plasma on magnetic microbeads coated with pepβ2GPI, RT-PCR quantification; format: binding; conditions: for % compared to β2GPI: HCV copies captured relative to β2GPI beads; for HCV/run copies: per run, virus captured on coated beads from plasma of patients
Protocol: as §1, §2
The virus used is the HCV virus (hepatitis C virus), present in the plasma of patients. The same protocol as described in example 1 was carried out.

[11] = tested on: E. coli B6054; assay: Capture of E. coli B6054 on magnetic microbeads, culture on TS agar and counting; format: binding, Escherichia coli; conditions: E. coli B6054 colonies from captured beads
[12] = tested on: E. coli ATCC 8739; assay: Capture of E. coli ATCC 8739 on magnetic microbeads, culture and counting; format: binding, Escherichia coli; conditions: E. coli ATCC 8739 colonies from captured beads
Protocol: (§8) One ml of the culture of bacteria to be studied is placed in a hemolysis tube. 100 μl of buffer are added, the trade name of which is TTGB, then 20 μl of microbeads. The tube is stirred horizontally, to mix the microbeads well, and incubated at 37° C. or at room temperature (TA=22° C.) for half an hour. At the end of the incubation, the microbeads are separated from the liquid phase by means of a magnet, placed externally against the wall of the tube. The microbeads are then washed twice with LB medium and then resuspended in 1 ml of BTS culture medium (Tripticase-Soy broth) having the following formulation: […]
(§9) This culture medium is brought to a boil and then autoclaved, to make it sterile, before use. 20 μl of the microbead suspension are taken and spread in a Petri dish containing TS agar (Trypticase-Soya agar) having the following formulation: […]
(§10) The Petri dishes are incubated at +37° C. for 24 hours. The bacteria that have grown on the agar are then counted.
The used bacteria were obtained from a collection strain of Escherichia coli (E. coli), ATCC 8739. The same experiment as that described in the previous example was carried out.

[13] = tested on: HSV virus (Herpes Simplex virus); assay: Capture of HSV virus on magnetic microbeads coated with pepβ2GPI; format: binding
Protocol: as §1, §2, §3, §4

[14] = tested on: E. coli ATCC 8739; assay: Capture on magnetic microbeads coated with pepβ2GPI: C1 E. coli ATCC 8739; format: binding
Protocol: as §5, §6, §7

[15] = tested on: C. albicans 1; assay: Capture on magnetic microbeads coated with pepβ2GPI: H46 C. albicans 1; format: binding
Protocol: as §5, §6, §7

[16] = tested on: SCN; assay: Capture on magnetic microbeads coated with pepβ2GPI: H: 60 SCN; format: binding
Protocol: as §5, §6, §7

[17] = tested on: S. aureus, SA 378804; assay: Capture of S. aureus SA 378804 on magnetic microbeads, culture and counting; format: binding, Staphylococcus aureus; conditions: S. aureus SA 378804 colonies from captured beads
Protocol: as §8, §9, §10
The used bacterium is a strain of Staphylococcus aureus (S. aureus), SA 378804, isolated from the wound of the foot of a diabetic person, Sotto et al., Diabetes Care (2008) 31 (12), p. 2318-24. The same experiment as that described in the previous example was carried out.

[18] = molecular target: T1, binding of β2GPI to LPS (Homo sapiens, UniProt P02749); conditions: cited from earlier work
T1 sequence (P02749 20-345): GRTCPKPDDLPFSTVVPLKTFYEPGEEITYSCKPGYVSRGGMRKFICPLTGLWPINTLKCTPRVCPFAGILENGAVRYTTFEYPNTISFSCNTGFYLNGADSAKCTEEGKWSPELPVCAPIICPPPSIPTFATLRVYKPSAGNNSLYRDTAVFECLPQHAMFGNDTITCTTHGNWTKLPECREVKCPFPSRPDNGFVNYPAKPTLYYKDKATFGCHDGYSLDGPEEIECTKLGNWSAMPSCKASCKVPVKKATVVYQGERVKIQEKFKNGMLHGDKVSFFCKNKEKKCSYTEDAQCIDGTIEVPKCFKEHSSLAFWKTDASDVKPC

| Substance | % compared to β2GPI [1] | ISAV copies [1] | Capture of BVDV virus [2] [%] | Capture of C3 E. coli ATCC 11105 [3] [%] | Capture of C5 S. aureus ATCC 6538 [4] [%] | Capture of H61 E. coli B6054 [5] [%] | % compared to β2GPI [9] | IPN Copies [9] [copies] | % compared to β2GPI [10] | HCV/run copies [10] [copies] | % compared to β2GPI [11] [%] | % compared to β2GPI [12] [%] | Capture of HSV virus [13] [%] | % compared to β2GPI [17] [%] | other results |
| --- | --- | --- | --- | --- | --- | --- | --- | --- | --- | --- | --- | --- | --- | --- | --- |
| CKNKEKKC [Peptide P3] | (117%) | 65 550 copies | 15 | 42 | 65 | 88 |  |  |  |  |  |  |  |  |  |
| CKNKEKKCS [CNK8] |  |  |  |  |  |  |  |  |  |  |  |  |  |  | bactericidal effect [6]: have a bactericidal effect; bactericidal effect [7]: have a bactericidal effect; bactericidal effect [8]: This effect is less |
| H-(SSLAFWK)2-K—NH2 [Peptide P10] | (105%) | 58 400 copies | 208 | 45 | 66 | 79 | (67%) | 8 | (87%) | 98 | 34 | 12 | 119 |  | Capture of C1: E. coli ATCC 8739 [14]: 6.17%; Capture of H46: C. albicans 1 [15]: 97.9%; Capture of H: 60 SCN [16]: 49.0% |
| CKNKEKKC [Peptide P2] | (112%) | 62 700 copies | 181 | 30 | 80 | 104 | (50%) | 6 | (72%) | 81 | 31 | 15 | 97 | 104 |  |
| CKNKEKKCGGSSLAFWK [Peptide P4] | (110%) | 61 150 copies | 73 | 26 | 73 | 85 | (100%) | 12 | (73%) | 83 | 44 | 18 | 357 | 79 |  |
| SSLAFWK [Peptide P1] | (130%) | 72 300 copies | 7 | 30 | 56 | 71 | (117%) | 14 | (163%) | 184 | 92 | 68 |  | 115 |  |
| GDKVSFFCKNKEKKCS [GDK15] |  |  |  |  |  |  |  |  |  |  |  |  |  |  | bactericidal effect [6]: have a bactericidal effect; bactericidal effect [7]: have a bactericidal effect; bactericidal effect [8]: This effect is less |
| LAFWKTDA |  |  |  |  |  |  |  |  |  |  |  |  |  |  | inhibiting the binding of β2GPI to LPS [18]: capable of inhibiting the binding of β2GPI to LPS |
